The text below walks through data of patent publication US20090054245A1, “Method for detecting gastric cancer by detecting VLDLR gene” (FUJIFILM Corporation, priority 2006, published 2009).

In test [1] the test system is human VLDLR gene expression in SNU601 and MKN74 cells. As to the kind of experiment: RT-PCR analysis of human VLDLR expression in gastric cancer cells treated with 5-aza-dC and/or TSA. The class given is cell-based. The text has this: An empty pGL3 basic vector (mock) and constructs each comprising a different one of 3 sequences (fragments 1 to 3) upstream or in the proximity of VLDLR exon 1 were separately introduced into SNU601 and MKN74 cells. Luciferase activity was normalized relative to that of an internal control. Data shown in FIG. 3B contains mean values±SEMs of triplicate experiments of 3 different constructs. […] Arrows indicate fragments that were digested with restriction enzymes in a specific manner at sites recognized as methylated CpGs. […] With the use of two fragments (BS-1 and BS-2), all of the 71 CpG sites were subjected to sequencing. Squares represent CpG sites (white square: unmethylated site; and black square: methylated site).
The human VLDLR gene expression was examined in the cases in which CpG islands of the human VLDLR gene in gastric cancer cells were demethylated. Specifically, gastric cancer cells were treated in the presence of 5-aza-dC (serving as a transmethylase inhibitor) at different concentrations for 5 days, followed by determination of the capacity of inducing human VLDLR mRNA. […] RT-PCR was carried out with the use of two types of specific primers used for amplification of human VLDLR gene, followed by electrophoresis. GAPDH was used as an internal control. […]

For test [2], the system named is CpG islands of the human VLDLR gene in gastric cancer cells. As to the kind of experiment: Demethylation of VLDLR CpG islands by culturing gastric cancer cells with 5-aza-dC. The conditions noted are these: gastric cancer cells cultured in the presence of 5-aza-dC. The class given is cell-based. An excerpt: In addition, the extent of methylation of the CpG islands strongly correlated with inhibition of the expression of the human VLDLR gene in some gastric cancer cells.

Entries after “also recorded” stand apart in the source; their conditions may differ.

In the case of `Nc1ncn([C@H]2C[C@H](O)[C@@H](CO)O2)c(=O)n1` [5-aza-dC, 5-azadeoxycytidine], in test [1] (SNU601 and MKN74 cells (no VLDLR expression, no homozygous deletion), 5-aza-dC for 5 days (10 μM in FIG. 3A legend)), the “human VLDLR mRNA expression after 5-aza-dC treatment” value is given as “possible to recover the expression level of the human VLDLR gene; also recorded: found to have the capacity of inducing human VLDLR mRNA”. The “demethylation of CpG islands of the human VLDLR gene” value in test [2] is given as “possible to demetylate such CpG islands”.

On to `CC(/C=C/C(=O)NO)=C\[C@@H](C)C(=O)c1ccc(N(C)C)cc1` [TSA, trichostatin A], for which, in test [1] (SNU601 and MKN74 cells with densely methylated VLDLR CpG islands, TSA (10 ng/ml in FIG. 3A legend)), the “human VLDLR gene expression level in the presence of TSA” value was “equivalent to that obtained in the absence of TSA”.
